Some test systems named below: HCC-2998 colon; MDA-MB-435; MDA-N; NCI-H23 lung; RXF 393 renal; SF-295 CNS; SF-539 CNS; SK-MEL-28 melanoma; SNB-19 CNS; SNB-75 CNS; SR leukemia; SW-620 colon; TK-10 renal; UACC-62 melanoma.
Common to all, as to test: DTP human tumour cell line panel, 48 h

Molecules are shown by their SMILES.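 Compound exposure: 48 hours, 5 concentrations, 96-well plates. TGI: concentration producing complete growth inhibition.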 Where only a bound is given, the exact number is not on record here.

As for `Nc1ccc2c(c1)nc1n2C(c2c(F)cccc2F)SC1` (stereo not given), the TGI with HCC-2998 colon, in the assay with MDA-MB-435, in the assay on MDA-N, in the assay with NCI-H23 lung, with RXF 393 renal and in the assay on SF-295 CNS was greater than 100 µM in each case. Also, the TGI in the assay on SF-539 CNS, in the assay with SK-MEL-28 melanoma, in the assay on SNB-19 CNS, with SNB-75 CNS, with SR leukemia and with SW-620 colon was greater than 100 µM throughout. The TGI in the assay on TK-10 renal and with UACC-62 melanoma was greater than 100 µM throughout.
As to `CSC(=S)Nc1cccc(C)n1`, the TGI in the assay with HCC-2998 colon, in the assay on MDA-MB-435, with MDA-N, with NCI-H23 lung, in the assay on RXF 393 renal and in the assay on SF-295 CNS was greater than 100 µM in each case. Further, the TGI with SF-539 CNS, in the assay with SK-MEL-28 melanoma, with SNB-19 CNS, in the assay with SNB-75 CNS, with SR leukemia and in the assay with SW-620 colon was greater than 100 µM throughout. Further, the TGI in the assay on TK-10 renal and in the assay on UACC-62 melanoma was greater than 100 µM throughout.
On to `O=C(N/N=C/c1ccc([N+](=O)[O-])cc1)Nc1ccc(C(=O)O)cc1`, for which the TGI – broadly, the concentration at which net growth stops – with HCC-2998 colon was 52.6 µM; with MDA-MB-435, greater than 100 µM; in the assay on MDA-N, greater than 100 µM; in the assay with NCI-H23 lung, greater than 100 µM; in the assay with RXF 393 renal it was greater than 100 µM; in the assay on SF-295 CNS it was 63.7 µM. For the same compound, the TGI in the assay with SF-539 CNS, with SK-MEL-28 melanoma, in the assay on SNB-19 CNS, with SNB-75 CNS, in the assay on SR leukemia and with SW-620 colon was greater than 100 µM each time. Further, the TGI in the assay on TK-10 renal and in the assay with UACC-62 melanoma was greater than 100 µM throughout.
For `Cc1nc2ccc(C(F)(F)F)cc2nc1NCc1ccc(Cl)c(Cl)c1`, the TGI with HCC-2998 colon worked out at 22.3 µM; with MDA-MB-435, 31.8 µM; with MDA-N, 32 µM; in the assay on NCI-H23 lung, 30.9 µM; in the assay with RXF 393 renal, 26.5 µM; in the assay on SF-295 CNS it was 32.2 µM. For the same compound, the TGI in the assay with SF-539 CNS turned out to be 33.7 µM; in the assay on SK-MEL-28 melanoma, 33.9 µM; in the assay on SNB-19 CNS, 36.6 µM; in the assay on SNB-75 CNS, 26.9 µM; in the assay with SR leukemia, 32.7 µM; in the assay on SW-620 colon, 34.7 µM. The TGI in the assay with TK-10 renal was 21.2 µM; in the assay with UACC-62 melanoma, 18.5 µM.
Turning to `c1ccc2oc(-c3ccc(-c4nc5ccccc5o4)c4c3CC4)nc2c1`, the TGI in the assay on HCC-2998 colon, in the assay on MDA-MB-435, in the assay on MDA-N, with NCI-H23 lung, in the assay on RXF 393 renal and in the assay with SF-295 CNS was greater than 100 µM each time. Further, the TGI in the assay with SF-539 CNS, in the assay with SK-MEL-28 melanoma, in the assay on SNB-19 CNS, in the assay with SNB-75 CNS, in the assay with SR leukemia and in the assay with SW-620 colon was greater than 100 µM each time. The TGI in the assay with TK-10 renal and in the assay on UACC-62 melanoma was greater than 100 µM throughout.
For the compound `C[C@]12C[C@@H](OC(=O)[C@]1(C)O)[C@@H]([C@]1(O)CC[C@H]3[C@@H]4C[C@H]5O[C@]56C[C@H]5O[C@H]5C(=O)[C@]6(C)[C@H]4CC[C@@]31C)C2`, the TGI in the assay on HCC-2998 colon, with MDA-MB-435, in the assay on MDA-N, in the assay with NCI-H23 lung, with RXF 393 renal and with SF-295 CNS was greater than 50 µM each time. Besides, the TGI in the assay with SF-539 CNS, in the assay with SK-MEL-28 melanoma, in the assay with SNB-19 CNS, with SNB-75 CNS, in the assay on SR leukemia and in the assay with SW-620 colon was greater than 50 µM in each case. The TGI in the assay with TK-10 renal and in the assay on UACC-62 melanoma was greater than 50 µM in each case.
In the case of `O=c1[nH]nc(Cc2ccccc2)n1C1CCCC1`, the TGI in the assay with HCC-2998 colon, with MDA-MB-435, in the assay on MDA-N, in the assay on NCI-H23 lung, in the assay with RXF 393 renal and in the assay on SF-295 CNS was greater than 100 µM each time. For the same compound, the TGI in the assay on SF-539 CNS, in the assay on SK-MEL-28 melanoma, in the assay with SNB-19 CNS, in the assay on SNB-75 CNS, with SR leukemia and in the assay with SW-620 colon was greater than 100 µM in each case. Besides, the TGI in the assay with TK-10 renal and in the assay on UACC-62 melanoma was greater than 100 µM throughout.
Consider `COC(=O)c1cc2c(c3c1CC(Cc1ccccc1)C3=O)CCC2` (stereo not given), for which the TGI in the assay with HCC-2998 colon, in the assay on MDA-MB-435, with MDA-N, with NCI-H23 lung, with RXF 393 renal and in the assay on SF-295 CNS was greater than 100 µM in each case. Besides, the TGI in the assay with SF-539 CNS, in the assay with SK-MEL-28 melanoma, in the assay with SNB-19 CNS, with SNB-75 CNS, in the assay with SR leukemia and in the assay on SW-620 colon was greater than 100 µM each time. The TGI in the assay with TK-10 renal and with UACC-62 melanoma was greater than 100 µM each time.
As for `CCOC(=O)C(=CNc1ccc(NC2=NCC(C)S2)cc1)C(=O)OCC` (stereo not given), the TGI was greater than 100 µM in the assay with HCC-2998 colon; 60.2 µM in the assay with MDA-MB-435; greater than 100 µM in the assay with MDA-N; greater than 100 µM in the assay with NCI-H23 lung; 97.1 µM in the assay with RXF 393 renal; greater than 100 µM in the assay on SF-295 CNS. Moreover, the TGI was greater than 100 µM in the assay on SF-539 CNS; greater than 100 µM in the assay on SK-MEL-28 melanoma; greater than 100 µM in the assay on SNB-19 CNS; greater than 74.1 µM in the assay on SNB-75 CNS; greater than 69.8 µM with SR leukemia; greater than 100 µM in the assay on SW-620 colon. Besides, the TGI was greater than 100 µM with TK-10 renal and 26.8 µM with UACC-62 melanoma.
As to `CCOC(=O)N1N=C(/C(C)=N/OC)C(C)S1=O` (stereo not given), the TGI in the assay on HCC-2998 colon, in the assay with MDA-MB-435, with MDA-N, in the assay with NCI-H23 lung, in the assay on RXF 393 renal and with SF-295 CNS was greater than 100 µM throughout. In addition, the TGI in the assay with SF-539 CNS, in the assay on SK-MEL-28 melanoma, in the assay with SNB-19 CNS, in the assay on SNB-75 CNS, in the assay on SR leukemia and in the assay with SW-620 colon was greater than 100 µM throughout. Further, the TGI in the assay on TK-10 renal and with UACC-62 melanoma was greater than 100 µM each time.

(Values after PubChem BioAssay (NCI).)
